Experiments:
[1] = Permeability measured by traditional experiments (macroscopic diffusion cells); type: in vitro ADME
Method: (§1) The following experiments were performed to assess the usefulness of a method, which determines the loss of a test substance from a formulation over time. Experiments were performed to assess whether this method can be used for estimation of skin permeability to drugs. For these studies, phosphate buffered saline was used as a model formulation. […] Ten holes were drilled into the disc and each hole was about 2 mm wide. The disc was then placed on the SC prepared from human skin. Solutions of nine different drugs in PBS were placed in various holes. The concentration of drugs in the solutions were measured at time zero. The drugs were allowed to remain in contact with the skin for 24 hours. Samples were taken from the holes at the end of 24 hours and then analyzed using a liquid scintillation counter. The amount of drug lost from the donor hole was calculated. Permeability measurements of the same drugs were performed using conventional methods that use macroscopic diffusion cells.

[2] = Loss of drug from donor hole of Teflon disc placed on stratum corneum; type: in vitro ADME; conditions: drug in PBS, 2 mm hole, human SC, 24 hours contact, liquid scintillation counting
Method: as §1

[3] = Conductivity enhancement of skin, 5x5 High Throughput array; type: in vitro ADME, pig; conditions: 5x5 array, 0-2% (w/v) in PBS, up to 25 hrs
Excerpt: This array is built as a pattern of a 5×5 matrix. This corresponds to 25 test wells, each well 7.5 mm in diameter. It consists of two polycarbonate plates each 0.5 inches thick. The top plate (donor plate) has 25 through holes (wells), diameter 7.5 mm, drilled in it, each of which acts as an isolated donor chamber similar to the donor chamber in the Franz diffusion cells. The bottom plate (receiver plate) also has holes (wells) drilled in a similar pattern as the donor plate and simulates the receiver compartment of the diffusion cells. All wells are isolated from each other for all practical purposes and each well acts like an individual diffusion cell. The skin is placed between the donor and receiver plate and the plate assembly is clamped using four screws as shown in the figure.
Screening of the formulations is performed using pigskin. The wells in the receiver plate are filled with PBS. The skin is placed on the receiver plate with the stratum corneum (SC) facing the donor plate. The donor plate is then placed on the skin and the entire assembly is clamped tightly using four screws. […]
The formulations to be tested are filled in the donor compartments. […] The current, measured at 100 Hz and 143 mVpp, varied between 1 μA at time 0 to 25-30 μA at time 25 hrs.
The conductivity enhancements at time t″ is then calculated as [formula] […]

[4] = Transport enhancement of radiolabelled mannitol into skin, 5x5 High Throughput array; type: in vitro ADME, pig; conditions: 5x5 array, 0-2% (w/v) in PBS, 7 hrs
Method: Screening of the formulations is performed using pigskin. The wells in the receiver plate are filled with PBS. The skin is placed on the receiver plate with the stratum corneum (SC) facing the donor plate. The donor plate is then placed on the skin and the entire assembly is clamped tightly using four screws. A mild vacuum is then applied to remove any excess PBS that may be pushed in to the wells in the receiver plate. Radiolabelled mannitol was added to all formulations prepared in PBS at a concentration of 10 μCi/mL. The donor compartments were filled with these formulations each formulation was filled in 1 well. The skin was then incubated for 7 hrs. The solutions from the donor compartment were removed at the end of incubation period. The skin was then gently rinsed to free any mannitol that could be sticking to the surface of the skin. The skin was then cut and dissolved in 0.5 M Solvable, a tissue and gel solubilizer from Packard Chemicals at 60° C. overnight. […] The transport enhancement at different test formulations is then calculated as [formula] where CF is the radiation count for a particular test formulation and CC is the radiation count for the control i.e. PBS alone without any enhancer.

[5] = Transport enhancement of radiolabelled mannitol into skin, 10x10 High Throughput array; type: in vitro ADME, pig; conditions: 10x10 array, 0-2% (w/v) in PBS, 7 hrs
Method: Radiolabelled mannitol was added to all formulations prepared in PBS at a concentration of 10 μCi/mL. The donor compartments were filled with these formulations with each formulation filled in 4 wells. The skin was then incubated for 7 hrs. The solutions from the donor compartment were removed at the end of incubation period. The skin was then gently rinsed to free any mannitol that could be sticking to the surface of the skin. The skin was then cut and dissolved in 0.5 M Solvable, a tissue and gel solubilizer from Packard Chemicals, at 60° C. overnight. […] The transport enhancement at different test formulations is then calculated as [formula] where CF is the radiation count for a particular test formulation and CC is the radiation count for the control i.e. PBS alone without any enhancer.

[6] = Conductivity enhancement of skin, 10x10 High Throughput array; type: in vitro ADME, pig; conditions: 10x10 array, 0-2% (w/v) in PBS, up to 25 hrs, n=4
Method: This array is built as a pattern of 10×10 matrix. This corresponds to 100 test wells, each well 3 mm in diameter. The formulations to be tested are filled in the donor compartments. Each formulation is filled in 4 wells and each well can hold about 85 μL of the test formulation. Two 22 G 1½ needles are used as electrodes to measure current across the skin. One needle is stuck into the dermis and acts as the common electrode while the other needle is sequentially placed in each well to measure current. Current measurements are made across the skin periodically over a span of 25 hrs. […] The conductivity enhancement for a given formulation at time ‘t’ is then calculated as [formula] where It is the current across the skin at time ‘t’ and I0 is the current across the skin at time 0. […] The error bars correspond to the standard deviations. (n=4).

[7] = Conductivity enhancement of skin, Franz diffusion cells; type: in vitro ADME, pig; conditions: Franz diffusion cell, 0-2% in PBS, 24 hours
Method: A small stir bar and an Ag/AgCl disk electrode ([…] In-vivo Metrics) were added to the receiver chamber. In addition, the receiver chamber was filled with PBS. Pigskin was thawed and was mounted on the diffusion cell with the epidermis side facing up. The donor and the receiver compartments were clamped making sure there were no bubbles in the receiver chamber. Before each experiment, structural integrity of the skin was confirmed by measuring its conductivity. Skin samples with a resistivity less than 20 Kohm-cm^2 were assumed to be defective and not used. Skin conductivity was measured throughout the experiment to assess the effect of the formulation on skin structure. […] Each formulation was prepared in PBS. Current across the skin was measured over a period of 24 hours. The enhancement of skin conductivity was calculated as [formula] where It is the current across skin at time t, I0 being the current across skin at time 0.

[8] = Transport enhancement of radiolabeled mannitol into skin, Franz diffusion cells; type: in vitro ADME, pig; conditions: Franz diffusion cell, 0-2% (w/v) in PBS, 7 hrs
Method: The skin was incubated in the cells for 7 hrs. At the end of 7 hrs the skin was removed from the cell and dissolved in 0.5M Solvable, a gel and tissue solubilizer from Packard Chemicals, at 60° C. overnight. […] The enhancement of transdermal mannitol transport due to the formulations was calculated using the equation, E^T=CF/CC, where CF is the radiation count for a particular formulation and CC is the radiation count for the control which in this case is simply PBS with radiolabeled mannitol but no surfactant.

Compound	Papp [1] [×10⁻⁶ cm/s]	% Drug Lost from the Hole [2] [%]	further results
CCCCCCCCCCCCCCCCCCO [Octadecanol]	25	77	–
CCCCCCO [Hexanol]	–	31	–
C[C@]12CCC(=O)C=C1CC[C@@H]1[C@@H]2[C@@H](O)C[C@]2(C=O)[C@@H](C(=O)CO)CC[C@@H]12 [Aldosterone]	0.00833	9	–
CCCCCCCCCCCCOS(=O)(=O)[O-].[Na+] [SLS, Sodium Lauryl Sulfate]	–	–	Conductivity enhancement (It/I0) [3]: increases as a function of the SLS or TDAB concentration and reaches a maximum; Transport enhancement (amount of mannitol transported, CF/CC) [4]: increases monotonously as a function of the surfactant concentration; Transport enhancement (amount of mannitol transported, CF/CC) [5]: increases monotonously as a function of the surfactant concentration; Conductivity enhancement (It/I0) [6]: increases with increasing SLS or TDAB concentration and reaches a maximum after which it starts decreasing; Conductivity enhancement (It/I0) [7]: increases as a function of the SLS or TDAB concentration and reaches a maximum; Transport enhancement (amount of mannitol transported, CF/CC) [8]: increases monotonously as a function of the surfactant concentration
CCCCCCCCO [Octanol]	19.4	47	–
C[C@]12CC[C@H]3[C@@H](CCC4=CC(=O)CC[C@@]43C)[C@@H]1CC[C@@H]2O [Testosterone]	–	24	–
c1ccc2ccccc2c1 [Napthalene]	–	47	–
CC(=O)[C@H]1CC[C@H]2[C@@H]3CCC4=CC(=O)CC[C@]4(C)[C@H]3CC[C@]12C [Progesterone]	5.56	44	–

Reference: US20040023841A1, “Combinatorial method for rapid screening of drug delivery formulations” (priority 2003, published 2004)
